Results on two substances are retold here after patent publication US20160046665A1, “Peptide Ligand with Antibody Selectivity and the Application Thereof” (National Central University, priority 2014, published 2016).

“Also recorded” adds a separate entry of the source.

What all share (assay type): binding
One test concerns PSA. The experiment in a line: SPR sensitivity detection with micro concentration antigen, chip with Rabbit IgG. Conditions: Rabbit IgG absorbed on chip, Rabbit IgG flowed again for increasing signal, FIG. 7A. From the text: In the following experiments, antigen in micro concentration is employed for detecting the sensitivity of peptide ligand chips being able to recognize Rabbit IgG and Mouse IgG2a, and the experimental results are shown in FIG. 7A and FIG. 7B.
Firstly, Rabbit IgG and Mouse IgG2a are respectively absorbed to GGEGELW and GGRRGW. After flowing micro concentration antigen through, Rabbit IgG and Mouse IgG2a are flowed through the chip surface for increasing the detected signal. […] According to FIG. 7A and FIG. 7B, the signal of about 2 ng/mL PSA can be detected from Mouse IgG2a of GGRRGW chip surface, and the signal of about 1 ng/mL PSA can be detected from Rabbit IgG of GGEGELW chip surface. Therefore, it proves that the peptide ligand of this specification can efficiently improve the antigen sensitivity.

For the next test, the system named is Rabbit IgG. The experiment in a line: SPR absorption of Rabbit IgG on different chip surfaces. The text has this:
(§1) In this and the following examples, we employ Surface Plasmon resonance (SPR) as detecting equipment. The method for modifying SPR chip surface is briefly illustrated as following.
(§2) OEG [(11-Mercaptoundecyl)tetra(ethyleneglycol)] and OEG-COOH [HS(CH2)11(EG)6OCH2COOH] are mixed at the ratio of 10:1. Through strong gold-sulfur bonding, OEG and OEG-COOH are employed for modifying SPR chip surface to form mixed SAM (self-assembly monolayer). The mixed SAM surface comprises carboxyl group with negative charge, and hydroxyl group with hydrophilicity. The carboxyl group with negative charge on the SPR chip surface can be activated by EDC/20% DMSO. By reacting the 1° amino group of EDA (ethylenediamine) with the carboxyl group on the SPR chip surface to form amide bonding, the SPR chip surface can be modified into positive charge. And, in the same condition, the peptide ligand according to this invention can be grafted onto the SPR chip surface to form a peptide ligand surface.)
(§3) 1. 5 mM peptide ligand, 200 mM EDC, and 20% DMSO are prepared into 0.1 M pH=6.0 MES buffer solution.
(§4) In this example, SPR is employed for measuring the absorption of target antibody, rabbit immunoglobulin (Rabbit IgG), and target antigen, prostate specific antigen (PSA), on different charge surfaces and different peptide ligand surfaces. The mentioned different chip surfaces are employed for absorbing Rabbit IgG, washed with phosphate buffer (PB) solution, and employed to absorb PSA directly. Then, PB buffer solution is used to wash out the PSA not recognized by Rabbit IgG for measuring the absorption of antibody and antigen. The experimental process is roughly shown as following.
(§5) 1. 10 μg/mL Rabbit IgG is prepared in 0.01 M pH=7.4 PB buffer solution.
3. […]
(§6) In the above experiments, Surface Plasmon Resonance (SPR) is employed for measuring the antigen recognition efficiency of antibody on different modified chip surfaces. The recognition efficiency of Rabbit IgG and PSA on different chip with different charge surface and different peptide ligand is detected. […]

Test [1] relates to Mouse IgG2a. In words: SPR analysis of antibody oriented immobilization (orientation factor), Mouse IgG2a. The following applies: ratio of PSA and 2nd antibody, FIG. 6B. In general terms: Surface plasmon resonance follows binding to a sensor surface in real time, without labels.
Target sequence in this assay (P01863 98-330 limits assumed): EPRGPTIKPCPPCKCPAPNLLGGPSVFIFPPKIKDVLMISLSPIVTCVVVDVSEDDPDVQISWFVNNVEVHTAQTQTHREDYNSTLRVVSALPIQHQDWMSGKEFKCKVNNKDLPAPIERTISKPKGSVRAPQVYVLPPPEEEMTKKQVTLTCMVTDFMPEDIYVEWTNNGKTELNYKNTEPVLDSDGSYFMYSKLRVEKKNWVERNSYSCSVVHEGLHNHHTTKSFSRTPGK
In test [2] the test system is prostate specific antigen (PSA). The experiment in a line: SPR PSA absorption / antigen recognition on chip surfaces with Rabbit IgG. Conditions: FIG. 4A.
From the text: as §4, §5
2. 5 μg/mL PSA is prepared in 0.01 M pH=7.4 PB buffer solution.
3. The negative charge, positive charge, and peptide ligand modified chips are put on SPR respectively.
4. The flow rate is set at 20 μL/min.
5. Rabbit IgG, PB, PSA, and PB are flowed through the channel in sequence. The absorption time is about 60 minutes, and the desorption time is about 50 minutes.
(§7) Different chips with Rabbit IgG and Mouse IgG2a are used for PSA absorption experiment, and the PSA absorption is transferred to protein absorption by the above-mentioned formula, as shown in FIG. 3A and FIG. 3B.
(§8) In order to compare antigen recognition efficiency, we define “antigen recognition efficiency” as following: […]

Test [3] shares this test system. The experiment in a line: SPR PSA absorption / antigen recognition on chip surfaces with Mouse IgG2a.
From the text: as §4, §7, §8

Test [4] deals with Mouse IgG2a. In words: SPR absorption of Mouse IgG2a on different chip surfaces. The following applies: FIG. 2.
From the text: as §1, §2, §3, §6

Chain of Rabbit IgG (P01870 101-323 limits assumed): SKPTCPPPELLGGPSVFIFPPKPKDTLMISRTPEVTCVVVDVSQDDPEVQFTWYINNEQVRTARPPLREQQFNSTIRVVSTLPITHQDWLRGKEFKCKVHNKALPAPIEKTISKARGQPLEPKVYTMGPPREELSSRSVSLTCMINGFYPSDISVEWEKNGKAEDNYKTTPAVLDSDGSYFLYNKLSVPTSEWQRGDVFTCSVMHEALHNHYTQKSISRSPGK

For GGEGELW, in the test on PSA, the “PSA concentration whose signal can be detected by SPR” value was “about 1 ng/mL”.

For the substance RRGW, the “specificity to these antibodies” value in the test on Rabbit IgG (Rabbit IgG versus Mouse IgG2a absorption, FIG. 1B compared with FIG. 2) was “does not have specificity”. In addition, in the test with Rabbit IgG (SPR, FIG. 1B), the “Rabbit IgG absorption on chip surface (in words)” value is on record as “not much difference; also recorded: great”. The “Rabbit IgG absorption to the chip surface” value in the test with Rabbit IgG (SPR, peptide ligand chip surface, FIG. 3A) is given as “about 0.2 mol/cm^2”. The “orientation factor, chip surface with Mouse IgG2a” value in the test with Mouse IgG2a [1] is “good”. Moreover, in test [2], the “antigen recognition efficiency of Rabbit IgG” value is “not good”. The “antigen recognition efficiency of Mouse IgG2a” value in test [3] (PSA, FIG. 4B) was “great”. Further, the “PSA absorption on chip surface with Mouse IgG2a (in words)” value in test [3] (SPR, FIG. 3B) is given as “great”. The “oriented immobilization of Mouse IgG2a on chip surface” value in test [3] (deduced from Mouse IgG2a and PSA absorption) is listed as “great”. Also, the “Mouse IgG2a absorption on chip surface (in words)” value with Mouse IgG2a [4] is reported as “great; also recorded: higher”.
